According to patent US5366958A, “Localized delivery using fibronectin conjugates” (The Liposome Company, Inc., priority 1993, dated 1994):

Experiments:
[1] = type: in vivo, mouse (female Swiss Webster); settings: intra-articular, 2 ul, normalized to maximum possible value of 100%
Method: For this example control SPLVs were prepared as described in Section 4.3. using the following formulation: 100 mg EPC, 3.7 mg PE, and 10 mg indomethacin were dissolved in chloroform and then dried down to a film. The indomethacin was entrapped in the SPLVs by resuspending the film in ether, adding the aqueous phase and sonicating while evaporating. Trace amounts of radiolabeled ^14 C-indomethacin were incorporated to quantify retention of drug in joints of injected test animals.
Twenty-five female Swiss Webster mice were anesthetized with 50 mg/kg pentobarbitol and divided into 5 treatment groups. Group 1 was treated with unentrapped ^14 C-indomethacin (trace amount) in PBS buffer solution. Group 2 was treated with ^14 C-indomethacin entrapped in SPLVs (control SPLVs). Group 3 was treated with fibronectin-modified control SPLVs (non-covalent association) prepared by incubation of the SPLV-entrapped ^14 C-indomethacin with 0.3 mg fibronectin (FN, Seragen, Inc., Boston, Mass.; or Collaborative Research, Inc., Lexington, Mass.) for 2 hours before the SPLVs were repeatedly washed to remove unincorporated materials. Groups 4 and 5 were treated with SPLVs in which fibronectin was covalently attached to the liposomes. […] Two drops of glacial acetic acid were then added and samples were dark adapted over night before radioactivity was determined.

[2] = ocular application; cited from earlier work

| Compound | % Total 14C-Indomethacin Remaining in Joint, 5 Hours ([1]; 5 hours post-injection) | % Total 14C-Indomethacin Remaining in Joint, 24 Hours ([1]; 24 hours post-injection) | effectiveness in treating recurrent corneal erosion [2] |
| --- | --- | --- | --- |
| COc1ccc2c(c1)c(CC(=O)O)c(C)n2C(=O)c1ccc(Cl)cc1 [Unentrapped 14C-Indomethacin, indomethacin] | 4.7% | 1.0% | – |
| fibronectin | – | – | effective |
